Measured values published in article PMC4627800, “Allelic Variation of Cytochrome P450s Drives Resistance to Bednet Insecticides in a Major Malaria Vector” (PLoS Genetics, 2015).
Where two headings read alike, the source gives them in different places. Marks after values point to notes of the source that are not given here.

Legend:
UGANCYP6P9b = UGANCYP6P9b (Anopheles funestus, UniProt A0A0S1S7Y0); assay: Pyrethroid depletion (metabolism) assay with recombinant enzyme; assay type: biochemical; settings: 20μM insecticide, 1 hour, vs -NADPH
Asp^335Glu_CYP6P9b = Asp^335Glu_CYP6P9b (Anopheles funestus, UniProt B5AII7, D335E); assay: Kinetics of permethrin metabolism by CYP6P9b mutants; assay type: biochemical
Method: (§1) Reactions were performed in triplicates both for +NADPH (experimental tubes) and–NADPH (negative control). K m and V max were established from the plot of substrate concentrations against the initial velocities and fitting of the data to the Michaelis-Menten module using the least squares non-linear regression, as described in the GraphPad Prism 6.03 Software (GraphPad Inc., La Jolla, CA, USA).
(§2) In addition, fluorescent probes were also screened to establish differences in the O-dealkylation activity of the mutants compared with the wild type enzyme. All in vitro and kinetic analyses were conducted as described above. However, as different mutants expressed with varying concentrations all assays were conducted within linear range, with the amount of enzyme and time which produced highest activities.

Asn^384Ser_CYP6P9b = Asn^384Ser_CYP6P9b (Anopheles funestus, UniProt B5AII7, N384S); assay: as above; assay type: biochemical
Method: as §1, §2

Val^109Ile_CYP6P9b = Val^109Ile_CYP6P9b (Anopheles funestus, UniProt B5AII7, V109I); assay: as above; assay type: biochemical
Method: as §1, §2

Pro^401Ala_CYP6P9b = Pro^401Ala_CYP6P9b (Anopheles funestus, UniProt B5AII7, P401A); assay: as above; assay type: biochemical
Method: as §1, §2

[1] = tested on: Val^109Ile mutant of MALCYP6P9b; settings: 20μM insecticide
Method: (§3) To establish whether allelic variation in CYP6P9a and CYP6P9b impact their metabolic activities toward insecticides, pyrethroids were screened with the recombinant enzymes from these genes. […] Membrane expressing recombinant CYP6P9a/-b and AgCPR, and reconstituted cytochrome b5 were added to the side of the tube and pre-incubated for 5 minutes at 30°C, with shaking at 1,200 rpm to activate the membrane. 20μM of test insecticide was then added into the final volume of 0.2ml (~2.5% v/v methanol), and reaction started by vortexing at 1,200 rpm and 30°C for 1 hour. Reactions were quenched with 0.1ml ice-cold methanol and incubated for 5 more minutes. Tubes were then centrifuged at 16,000 rpm and 4°C for 15 minutes, and 150μl of supernatant transferred into HPLC vials for analysis. Reactions were carried out in triplicates with experimental samples (+NADPH) and negative controls (-NADPH). 100μl of sample was loaded onto an isocratic mobile phase (90:10 v/v methanol to water) with a flow rate of 1ml/min, monitoring wavelength of 226nm and peaks separated with a 250mm C18 column (Acclaim 120, Dionex) on Agilent 1260 Infinity at 23°C.
(§4) In addition, fluorescent probes were also screened to establish differences in the O-dealkylation activity of the mutants compared with the wild type enzyme. All in vitro and kinetic analyses were conducted as described above. […]

[2] = tested on: Asp^335Glu mutant of MALCYP6P9b; settings: 20μM insecticide
Method: as §3, §4

BENCYP6P9b [3] = biological target: T1, BENCYP6P9b (Anopheles funestus, UniProt A0A0S1S7Y0); assay: Pyrethroid depletion (metabolism) assay with recombinant enzyme; assay type: biochemical; settings: 20μM insecticide, 1 hour, vs -NADPH
Method: (§7) To establish whether allelic variation in CYP6P9a and CYP6P9b impact their metabolic activities toward insecticides, pyrethroids were screened with the recombinant enzymes from these genes. […] Membrane expressing recombinant CYP6P9a/-b and AgCPR, and reconstituted cytochrome b5 were added to the side of the tube and pre-incubated for 5 minutes at 30°C, with shaking at 1,200 rpm to activate the membrane. 20μM of test insecticide was then added into the final volume of 0.2ml (~2.5% v/v methanol), and reaction started by vortexing at 1,200 rpm and 30°C for 1 hour. Reactions were quenched with 0.1ml ice-cold methanol and incubated for 5 more minutes. Tubes were then centrifuged at 16,000 rpm and 4°C for 15 minutes, and 150μl of supernatant transferred into HPLC vials for analysis. Reactions were carried out in triplicates with experimental samples (+NADPH) and negative controls (-NADPH). 100μl of sample was loaded onto an isocratic mobile phase (90:10 v/v methanol to water) with a flow rate of 1ml/min, monitoring wavelength of 226nm and peaks separated with a 250mm C18 column (Acclaim 120, Dionex) on Agilent 1260 Infinity at 23°C. Enzyme activity was calculated as percentage depletion (the difference in the amount of insecticide(s) remaining in the +NADPH tubes compared with the–NADPH) and a t-test used for statistical analysis.

UGANCYP6P9a [4] = biological target: T2, UGANCYP6P9a (Anopheles funestus, UniProt B5AII6); assay: as above; assay type: biochemical; settings: 20μM insecticide, 1 hour, vs -NADPH
Method: (§8) Membrane expressing recombinant CYP6P9a/-b and AgCPR, and reconstituted cytochrome b5 were added to the side of the tube and pre-incubated for 5 minutes at 30°C, with shaking at 1,200 rpm to activate the membrane. 20μM of test insecticide was then added into the final volume of 0.2ml (~2.5% v/v methanol), and reaction started by vortexing at 1,200 rpm and 30°C for 1 hour. Reactions were quenched with 0.1ml ice-cold methanol and incubated for 5 more minutes. Tubes were then centrifuged at 16,000 rpm and 4°C for 15 minutes, and 150μl of supernatant transferred into HPLC vials for analysis. Reactions were carried out in triplicates with experimental samples (+NADPH) and negative controls (-NADPH). 100μl of sample was loaded onto an isocratic mobile phase (90:10 v/v methanol to water) with a flow rate of 1ml/min, monitoring wavelength of 226nm and peaks separated with a 250mm C18 column (Acclaim 120, Dionex) on Agilent 1260 Infinity at 23°C. Enzyme activity was calculated as percentage depletion (the difference in the amount of insecticide(s) remaining in the +NADPH tubes compared with the–NADPH) and a t-test used for statistical analysis.

BENCYP6P9b [5] = biological target: T1, BENCYP6P9b; assay: Steady-state kinetics of pyrethroid metabolism; assay type: biochemical
Method: as §1

UGANCYP6P9a [6] = biological target: T2, UGANCYP6P9a; assay: Steady-state kinetics of pyrethroid metabolism; assay type: biochemical
Method: as §1

[7] = tested on: transgenic flies over-expressing FANGCYP6P9b; settings: 2% permethrin paper
Method: (§5) Primers used for this PCR are given in S8 Table. PCR conditions, cloning techniques, construction of transgenic flies and expression of candidate genes was conducted as described in previous studies, with more details provided in S1 Text. For control group, flies with the same background as the UAS transgenic lines but devoid of the UAS construct with the candidate gene were crossed with the driver Actin5C-GAL4 line to generate Actin5C-GAL4-null flies.
(§6) These papers were then rolled and introduced into 45 cc plastic vials. The vials were then plugged with cotton wool soaked in 5% sucrose. 20–25 (2–4 days old, post-eclosion F1 females) were selected for the bioassays and introduced into the vials. Mortality plus knockdown was scored after 1 hr, 2 hrs, 3 hrs, 6 hrs, 12 hrs and 24 hrs post-exposure to the discriminating dose of the insecticides.

[8] = tested on: transgenic flies over-expressing MALCYP6P9b; settings: 2% permethrin paper
Method: as §5, §6

[9] = tested on: transgenic flies over-expressing MALCYP6P9a; settings: 2% permethrin paper
Method: as §5, §6

[10] = tested on: transgenic flies over-expressing FANGCYP6P9a; settings: 2% permethrin paper
Method: as §5, §6

BENCYP6P9a = BENCYP6P9a (Anopheles funestus, UniProt A0A0S1RZ75); assay: Pyrethroid depletion (metabolism) assay with recombinant enzyme; assay type: biochemical; settings: 20μM insecticide, 1 hour, vs -NADPH
Method: as §8

FANGCYP6P9b [11] = biological target: T3, FANGCYP6P9b (Anopheles funestus, UniProt A0A0S1RZ61)
Method: as §1

FANGCYP6P9a = FANGCYP6P9a (Anopheles funestus, UniProt K7Z0P3)
Method: as §1

[12] = biological target: wild type recombinant MALCYP6P9b (wrMALCYP6P9b) (Anopheles funestus, UniProt B5AII7)
Method: as §1, §2

MALCYP6P9a = MALCYP6P9a (Anopheles funestus, UniProt B5AII6); assay: Pyrethroid depletion (metabolism) assay with recombinant enzyme; assay type: biochemical; settings: 20μM insecticide, 1 hour, vs -NADPH
Method: as §8

FANGCYP6P9b [13] = biological target: T3, FANGCYP6P9b; assay: as above; assay type: biochemical; settings: 20μM insecticide, 1 hour, vs -NADPH
Method: as §7

With `CC1(C)C(C=C(Cl)Cl)C1C(=O)OCc1cccc(Oc2ccccc2)c1` (centres unmarked) [permethrin] the Percentage depletion (UGANCYP6P9b) was 88.58±3.48 %, the Km (Asp^335Glu_CYP6P9b) was 5.19 ± 1.89 µM and the Kcat (Asp^335Glu_CYP6P9b; Asp^335Glu_CYP6P9b, mean ± S.E.M.) was 0.98±0.12*** min^-1. The “Kcat of wrMALCYP6P9b, fold of mutant” value (Asp^335Glu_CYP6P9b; wrMALCYP6P9b vs Asp^335Glu) was 8 fold, the “catalytic efficiency of wrMALCYP6P9b, fold of mutant” value (Asp^335Glu_CYP6P9b; wrMALCYP6P9b vs Asp^335Glu) was 4 fold and the Km (Asn^384Ser_CYP6P9b) was 17.9 ± 0.87 µM. For the same molecule, the “Km of mutant, fold of Asp^335Glu mutant” value (Asn^384Ser_CYP6P9b) was 4 fold, the “Km of mutant, fold of wrMALCYP6P9b” value (Asn^384Ser_CYP6P9b) was 2 fold and the Kcat (Asn^384Ser_CYP6P9b; Asn^384Ser_CYP6P9b, mean ± S.E.M.) was 0.87±0.08*** min^-1. For the same molecule, the “Kcat of wrMALCYP6P9b, fold of mutant” value (Asn^384Ser_CYP6P9b; wrMALCYP6P9b vs Asn^384Ser) was 9 fold, the “catalytic efficiency of wrMALCYP6P9b, fold of mutant” value (Asn^384Ser_CYP6P9b; wrMALCYP6P9b vs Asn^384Ser) was 20 fold and the Km (Val^109Ile_CYP6P9b) was 20.5 ± 1.35 µM. For the same molecule, the “Km of mutant, fold of Asp^335Glu mutant” value (Val^109Ile_CYP6P9b) was 4 fold, the “Km of mutant, fold of wrMALCYP6P9b” value (Val^109Ile_CYP6P9b) was 2 fold and the Kcat (Val^109Ile_CYP6P9b; Val^109Ile_CYP6P9b, mean ± S.E.M.) was 1.35±0.57** min^-1. The “Kcat of wrMALCYP6P9b, fold of mutant” value (Val^109Ile_CYP6P9b; wrMALCYP6P9b vs Val^109Ile) was 6 fold, the “catalytic efficiency of wrMALCYP6P9b, fold of mutant” value (Val^109Ile_CYP6P9b; wrMALCYP6P9b vs Val^109Ile) was 13 fold and the Km (Pro^401Ala_CYP6P9b) was 15.4 ± 6.5 µM. The Kcat (Pro^401Ala_CYP6P9b; Pro^401Ala_CYP6P9b, mean ± S.E.M.) was 4.21±0.96* min^-1, the “catalytic efficiency of wrMALCYP6P9b, fold of mutant” value (Pro^401Ala_CYP6P9b; wrMALCYP6P9b vs Pro^401Ala) was 3 fold and the “fold less depletion than wrMALCYP6P9b” value [1] was 2 fold. The “fold less depletion than wrMALCYP6P9b” value [2] was 2.15 fold, the Percentage depletion (BENCYP6P9b [3]) was 89.63±0.63 % and the Percentage depletion (UGANCYP6P9a [4]) was 60.71±0.92 %. For the same molecule, the Kcat (BENCYP6P9b [5]) was 15.91±5.45^b min^-1, the “Kcat, fold higher than FANGCYP6P9b” value (BENCYP6P9b [5]; BENCYP6P9b vs FANGCYP6P9b) was 4 fold and the Kcat (UGANCYP6P9a [6]) was 0.122 ± 0.017 s⁻¹. The “Kcat, fold higher than FANGCYP6P9a” value (UGANCYP6P9a [6]; UGANCYP6P9a vs FANGCYP6P9a) was 2 fold, the “catalytic efficiency, fold higher than FANGCYP6P9a” value (UGANCYP6P9a [6]; UGANCYP6P9a vs FANGCYP6P9a) was 3 fold and the mortality ([7]; 12 hrs) was 55%. For the same molecule, the mortality ([7]; 24 hrs) was ~ 60%, the mortality ([8]; 12 hrs) was less than 30% and the mortality ([8]; 24 hrs) was ~ 30%. For the same molecule, the mortality ([9]; 2 hrs) was “less than 10%”, the mortality ([9]; 3 hrs) was less than 30% and the mortality ([9]; 6 hrs) was less than 45%. The mortality ([10]; 2 hrs) was 30%, the mortality ([10]; 3 hrs) was ~ 60% and the mortality ([10]; 6 hrs) was ~ 70%. The Percentage depletion (BENCYP6P9a) was 66.42±2.23 %, the Kcat (FANGCYP6P9b [11]) was 0.075 ± 0.0225 s⁻¹ and the Km (FANGCYP6P9b [11]) was 20.5 ± 8.31 µM. It also gave a Kcat (FANGCYP6P9a) of 0.0825 ± 0.032 s⁻¹, a Kcat [12] of 0.1317 ± 0.0138 s⁻¹ and a Km [12] of 10.3 ± 2.38 µM. It also gave a Percentage depletion (MALCYP6P9a) of 65.38±1.5 % and a Percentage depletion (FANGCYP6P9b [13]) of 13.7±4.23%.
